Test results: patent US12668803B2, “Glypican-3-specific modified aptamer and use thereof” (APTAMER SCIENCES INC., priority 2019, dated 2026)

Key:
Assay type in all cases: cell-based
Huh 7 cells = assay: Cell binding analysis of Cy5-labeled aptamers (FACS); conditions: three vs five gemcitabines bound, method of Example 2-1, FIG. 19
Method: (§1) The 12-10 aptamer and 5 aptamer libraries prepared by truncating the 12-10 aptamer at various lengths [12-10 (40-mer), 12-12 (35-mer), 12-11 (29-mer), 12-13 (24-mer), 12-14 (23-mer), 12-15 (18-mer)] were subjected to cell binding analysis. Each aptamer sequence was labeled with Cy5 at the 5′ end thereof according to the method of Example 1-1. Huh 7 cells (ATCC, Rockville, MD, USA) were seeded at a density of 2×10^6/mL in a 100 mm^2 culture plate, and cultured using a DMEM medium (Gibco, Grand Island, NY, USA) containing 10% FBS (Gibco, Grand Island, NY, USA) and 1% antibiotics (penicillin/streptomycin) under conditions of 5% CO2 and 37° C. 5 μM of the aptamer stock was mixed with 5×SB18 buffer to prepare the aptamer at a concentration of 4 μM, and heated at 95° C. for 5 min, and then cooled at room temperature for 15 min or more. 4 μM of the aptamer was diluted with KRPH buffer (20 mM HEPES, 5 mM KH2PO4, 1 mM MgSO4, 1 mM CaCl2, 136 mM NaCl, 4.7 mM KCl, pH 7.4) at a concentration of 25 nM. The culture medium was removed from the cultured cells, and 4 mL of phosphate-buffered saline (PBS) was added thereto, followed by washing, and then 4 mL of PBS was removed. 4 mL of cold PBS or warm PBS was added, and cells were scraped using a scraper, and collected in tubes, followed by pipetting. The cells were divided and added to fluorescence-activated cell sorting (FAC) tubes according to the number of samples, followed by centrifugation at 4° C. and 2000 rpm for 4 min. After removing the supernatant, each 500 μL of 25 nM aptamer and control (31-08 (40-mer) aptamer) were added to 15 mL of KRPH buffer, followed by pipetting. The tube was covered with foil to block the light, followed by incubation at 4° C. for 30 min. After incubation, centrifugation was performed at 4° C. and 2000 rpm for 4 min, and the supernatant was removed. 2 mL of cold 1×PBS was added, washed, centrifuged at 4° C. and 2000 rpm for 4 min, and the supernatant was removed. This process was repeated three times. […] Cy5 was measured at […]. […]

HepG2 = assay: Cellular internalization of gemcitabine-bound chemically optimized aptamers; conditions: analysis in HepG2 and A431 cells, FIGS. 20 to 22
Method: [The source words this procedure for another cell line and reports this cell line under the same test.] 5 aptamer libraries prepared by truncating the 12-10 aptamer at various lengths [12-12 (35-mer), 12-11 (29-mer), 12-13 (24-mer), 12-14 (23-mer), and 12-15 (18-mer)] were subjected to cellular internalization analysis. In detail, a 6-well plate was prepared, and a round cover glass was placed in the 6-well plate. Huh-7 cells were cultured in the 6-well plate according to the method of Example 1-3. 5 μM of the aptamer stock was mixed with 5×SB18 buffer to prepare the aptamer at a concentration of 4 μM, and heated at 95° C. for 5 min, and then cooled at room temperature for 15 min or more. The next day, the medium was removed from the cultured cells, and a serum-free medium was added thereto, and cultured under conditions of 37° C. and 5% CO2 for 1 hr. The serum-free medium was removed, and then the cells were washed with 2 mL of 1×PBS. KRPH buffer was added, and cultured under conditions of 37° C. and 5% CO2 for 1 hr. 4 μM aptamer was diluted to 25 nM, and then cultured under conditions of 37° C. and 5% CO2 for 1 hr or 4 hr. Washing was repeated three times with 2 mL of 1×PBS. Washing was performed in a shaker at room temperature for 10 min while blocking the light. Thereafter, the cells were fixed by treatment with 4% paraformaldehyde at 4° C. for 10 min. Washing was repeated three times with 2 mL of 1×PBS. […]

[1] = test system: hepatoma cells (Hep3B, HepG2); assay: Cell cycle analysis (propidium iodide, FACS); conditions: 4 hr treatment, FIGS. 25 and 26
Method: (§2) To analyze the effects of combi 4 and combi 5 bound with three or five gemcitabines on the cell cycle of hepatoma cells, cell cycle analysis was performed. In detail, Hep3B, HepG2, and A431 cells were seeded in a 6-well plate at a density of 1×10^6/ml, and cultured using a DMEM medium containing 10% FBS and 1% antibiotics (penicillin/streptomycin) under conditions of 5% CO2 and 37° C., respectively. Next day, 100 μM of the modified aptamer stock was mixed with 5×SB18 buffer to prepare the aptamer at a concentration of 80 μM, and heated at 95° C. for 5 min, and then cooled at room temperature for 15 min or more. The medium was removed from the cultured cells, and replaced by a serum-free medium, and cultured under conditions of 37° C. and 5% CO2 for 1 hr. The serum-free medium was removed, and then the cells were washed with 2 ml of 1×PBS. 2 ml of KRPH buffer was added, and cultured under conditions of 37° C. and 5% CO2 for 1 hr. The aptamer was added, and cultured under conditions of 37° C. and 5% CO2 for 4 hr. The KRPH buffer was removed, and 2 ml of 1×PBS was added thereto to perform washing, and then PBS was removed. 2 ml of 1×PBS was added, and cells were scraped using a scraper, and collected in FACs tubes, followed by centrifugation at 4° C. and 2000 rpm for 4 minutes. 1/500-fold diluted RNAase A and propidium iodide diluted with PBS at a concentration of 50 μg/ml were added to the FACs tubes at a volume of 500 μL, followed by pipetting. Incubation was performed at room temperature for 30 min while blocking the light, and then cell cycle was measured.

[2] = test system: squamous cell carcinoma cells (A431); assay: Cell cycle analysis (propidium iodide, FACS); conditions: 4 hr treatment, FIG. 27
Method: as §2

[3] = test system: GPC3-expressing hepatoma cells; assay: Cell-killing effect (CCK-8) of gemcitabine-bound combi aptamers; conditions: FIG. 23 and FIG. 24
Method: In detail, Huh-7 cells (ATCC, Rockville, MD, USA) were seeded in a 96-well plate at a density of 1×10^4/mL, and cultured using a DMEM (Gibco, Grand Island, NY, USA) medium containing 10% FBS (Gibco, Grand Island, NY, USA) and 1% antibiotics (penicillin/streptomycin) under conditions of 5% CO2 and 37° C. Next day, the aptamer stock (100 μM) was mixed with 5×SB18 buffer to prepare the stock at a concentration of 80 μM, and heated at 95° C. for 5 min, and then cooled at room temperature for 15 min or more. The medium was removed from the cultured cells, and 100 μL of a serum-free medium was added thereto, and cultured under conditions of 37° C. and 5% CO2 for 1 hr. The serum-free medium was removed, and then the cells were washed with 100 μL of 1×PBS. 100 μL of KRPH buffer was added, and cultured under conditions of 37° C. and 5% CO2 for 1 hr. The aptamer was diluted with KRPH buffer to 2-fold of the desired concentration, and added to a 96-well plate at 1× concentration, and cultured under conditions of 37° C. and 5% CO2 for 4 hr. After treatment with the aptamer, the KRPH buffer was removed, and then 100 μL of culture medium was added and cultured under conditions of 37° C. and 5% CO2 for […]. 6 days later, 10 μL of a kit solution of CCK-8 (Cell Counting Kit-8) was added to each well, and then cultured under conditions of 37° C. and 5% CO2 for 3 hr. Cell death levels were examined at […] using a microplate reader.

Hep3B = assay: Cellular internalization of chemically optimized aptamers (FIG. 17A); conditions: combi 1 to combi 5, FIG. 17A
HepG2 cell = assay: Cell binding analysis of chemically optimized aptamers; conditions: combi 1 to combi 5, FIG. 16
Method: [The source words this procedure for another cell line and reports this cell line under the same test.] as §1, with “4 mL of cold PBS or warm PBS was added, and cells were scraped using a scraper, and collected in tubes, followed by pipetting.” left out, “min.” for “min. After removing the supernatant, each 500 μL of 25 nM aptamer and control (31-08 (40-mer) aptamer) were added to 15 mL of KRPH buffer, followed by pipetting. The tube was covered with foil to block the light, followed by incubation at 4° C. for 30 min. After incubation, centrifugation was performed at 4° C. and 2000 rpm for 4 min, and the supernatant was removed. 2 mL of cold 1×PBS was added, washed, centrifuged at 4° C. and 2000 rpm for 4 min, and the supernatant was removed. This process was repeated three times.”

Row | Substance | cell binding ability (Huh 7 cells) | cellular internalization (HepG2) | cell cycle arrest [1] | cell cycle arrest [2] | concentration from which a cell-killing effect is shown [3] [nM] | Hep3B cellular internalization (Hep3B) | HepG2 cell binding (HepG2 cell)
1 | Combi 4 G(3) (DNA GNGAANGCGNNGAANNANGYSSSNNCAGNCANCAC; gemcitabines, 2'-OMe, 2'-F, BzdU, 3' idT; Combi 4 G(3); (1)..(1) G is 2-O-Methoxy-DNA.; (2)..(2) n is BzdU.; (3)..(3) G is 2-O-Methoxy-DNA.; (4)..(4) A is 2-Fluorine-DNA.; (5)..(5) A is 2-Fluorine-DNA.; (6)..(6) n is BzdU.; (10)..(10) n is BzdU.; (11)..(11) n is BzdU.; (12)..(12) G is 2-Fluorine-DNA.; (13)..(13) A is 2-Fluorine-DNA.; (14)..(14) A is 2-Fluorine-DNA.; (15)..(15) n is BzdU.; (16)..(16) n is BzdU.; (17)..(17) A is 2-Fluorine-) | excellent cell binding ability | excellent cellular internalization | arrested hepatoma cells at the G1/S phase | no cell cycle arrest | 100 | – | –
2 | Combi 5: SEQ ID NO: 14, chemically optimized 12-12 aptamer (G_{Me}nG_{Me}A_{F}A_{F}nGCGnnG_{F}A_{F}A_{Me}nnA_{Me}nWYC_{F}C_{F}C_{F}nnCAG_{Me}nCAnC_{F}A_{Me}C_{F}; 2'-F and 2'-OMe units, modified bases n, W, Y undefined, 3' idT, as printed in the source, key not given here) | – | – | – | – | – | highest | most similar to that of 12-12
